# From patent US6426405B2, “Neurotransmitter transporter SC6” (SmithKline Beecham P.L.C., priority 1998, dated 2002)
# Molecular target: T1, SC6 (GlyT-2 transporter) (Homo sapiens, UniProt Q9Y345)
# T1 sequence (Q9Y345 1-797 F124S/A162G/Q184R/D463N/I735T/V751A): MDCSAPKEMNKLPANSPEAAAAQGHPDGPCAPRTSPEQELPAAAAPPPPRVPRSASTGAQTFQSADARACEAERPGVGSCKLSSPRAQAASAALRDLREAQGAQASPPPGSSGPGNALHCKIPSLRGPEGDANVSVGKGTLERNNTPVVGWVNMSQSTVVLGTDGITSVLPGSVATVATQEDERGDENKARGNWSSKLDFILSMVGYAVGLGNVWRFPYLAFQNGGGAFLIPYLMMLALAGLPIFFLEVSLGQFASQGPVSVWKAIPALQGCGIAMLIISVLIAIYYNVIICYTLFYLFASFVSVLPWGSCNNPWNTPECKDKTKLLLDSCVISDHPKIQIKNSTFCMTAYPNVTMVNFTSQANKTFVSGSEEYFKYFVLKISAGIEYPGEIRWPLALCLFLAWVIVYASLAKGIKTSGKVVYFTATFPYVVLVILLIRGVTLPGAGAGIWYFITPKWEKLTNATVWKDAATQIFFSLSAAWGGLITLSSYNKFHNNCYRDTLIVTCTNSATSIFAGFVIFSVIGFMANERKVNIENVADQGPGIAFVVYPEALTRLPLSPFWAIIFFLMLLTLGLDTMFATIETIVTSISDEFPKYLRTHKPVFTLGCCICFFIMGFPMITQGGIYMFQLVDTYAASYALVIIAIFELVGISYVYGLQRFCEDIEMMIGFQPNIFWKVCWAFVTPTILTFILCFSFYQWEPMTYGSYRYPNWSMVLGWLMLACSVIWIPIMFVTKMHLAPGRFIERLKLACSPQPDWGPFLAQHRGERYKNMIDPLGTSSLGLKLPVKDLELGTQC
# Experiment: [3H]-glycine uptake assay in HEK-293 cells transiently transfected with SC6
# Conditions: 1 mM test substance, 1 μM [3H]-glycine, alanine (5 mM) present, HEK-293 cells transfected with SC6, 37° C.
row,effect on [3H]-glycine uptake,SMILES
1,almost totally blocked,NCC(=O)O [glycine]
2,not significantly affected,CNCC(=O)O [sarcosine]
